This passage reports EC50, AC50 and IC50 results from ChEMBL document CHEMBL1201862, “PubChem BioAssay data set” (2004).

A short description of test [1]: cytotoxicity toward DRD oncogenic fibroblasts, dose response, cell-based, non-viral oncogenic, luminescence (AID 1934). The test is classed as functional. The conditions noted are these: Homo sapiens.
In test [2] the target is Caspase-7 (Homo sapiens, UniProt P55210). Put plainly: human caspase-7 inhibitors, dose response, selectivity assay for caspase-6 inhibitor project, biochemical, DEVD-R110 fluorescence, cherry-pick (AID 743295). Format: […].
Sequence of Caspase-7 (P55210 24-198 limits assumed): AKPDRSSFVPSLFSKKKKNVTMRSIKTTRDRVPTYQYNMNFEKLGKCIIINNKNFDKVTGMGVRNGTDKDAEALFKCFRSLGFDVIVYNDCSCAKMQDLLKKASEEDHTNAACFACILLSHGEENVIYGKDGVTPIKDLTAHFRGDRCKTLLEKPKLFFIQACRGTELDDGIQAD
Sequence of Caspase-7 (P55210 207-303 limits assumed): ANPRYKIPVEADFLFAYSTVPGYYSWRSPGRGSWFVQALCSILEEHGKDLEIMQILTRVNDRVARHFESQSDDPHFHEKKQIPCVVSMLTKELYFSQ
Test [3] concerns the target T1, Heat shock factor protein 1 (Mus musculus, UniProt P38532).
T1 sequence (P38532 whole entry): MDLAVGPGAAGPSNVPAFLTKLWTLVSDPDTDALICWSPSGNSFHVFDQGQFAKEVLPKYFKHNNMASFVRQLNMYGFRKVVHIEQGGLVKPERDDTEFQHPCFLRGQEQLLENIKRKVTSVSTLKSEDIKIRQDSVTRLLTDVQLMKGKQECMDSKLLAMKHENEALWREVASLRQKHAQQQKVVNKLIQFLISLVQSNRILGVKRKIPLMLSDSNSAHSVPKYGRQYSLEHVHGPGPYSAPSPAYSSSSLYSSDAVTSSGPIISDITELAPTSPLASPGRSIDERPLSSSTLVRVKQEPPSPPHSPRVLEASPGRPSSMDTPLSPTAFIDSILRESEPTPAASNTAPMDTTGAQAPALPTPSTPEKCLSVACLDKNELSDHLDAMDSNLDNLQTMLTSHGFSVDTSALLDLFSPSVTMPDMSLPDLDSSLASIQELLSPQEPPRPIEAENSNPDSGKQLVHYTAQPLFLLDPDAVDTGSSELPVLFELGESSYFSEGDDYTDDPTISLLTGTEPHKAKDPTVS
The experiment in a line: inhibition of MG132-induced HSE-luciferase signal, confirmation, cell-based, NIH3T3, luminescence, dose retest (AID 2382).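 Note: NIH3T3 fibroblasts with HSF1-driven luciferase reporter stressed by proteasome inhibitor MG132; luminescence from HSF1-driven luciferase expression after 8 hours of MG132 stress.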 Format: functional.

A short description of test [4]: inhibitors of intracellular T. cruzi replication, confirmation, NIH3T3 host cells, beta-gal luminescence (AID 2044).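 Note: intracellular parasites grown in NIH/3T3 mouse fibroblasts as host cells; luminescent beta-galactosidase reporter signal from transgenic T. cruzi replicating inside host cells; inhibitors lower the luminescence signal.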 The test is classed as functional, cell-based.
A short description of test [5]: Luminescence Cell-Based Dose Response HTS to Identify Inhibitors of 5'UTR Stem-Loop Driven Prion Protein mRNA Translation in H4 Neuroglioblastoma Cells. [Related pubchem assays: 1827 (Project Summary), 1813 (Primary HTS)]. The test is classed as functional.
Test [6] has as its target T2, Sentrin-specific protease 6 (Homo sapiens, UniProt Q9GZR1).
T2 sequence (Q9GZR1 whole entry): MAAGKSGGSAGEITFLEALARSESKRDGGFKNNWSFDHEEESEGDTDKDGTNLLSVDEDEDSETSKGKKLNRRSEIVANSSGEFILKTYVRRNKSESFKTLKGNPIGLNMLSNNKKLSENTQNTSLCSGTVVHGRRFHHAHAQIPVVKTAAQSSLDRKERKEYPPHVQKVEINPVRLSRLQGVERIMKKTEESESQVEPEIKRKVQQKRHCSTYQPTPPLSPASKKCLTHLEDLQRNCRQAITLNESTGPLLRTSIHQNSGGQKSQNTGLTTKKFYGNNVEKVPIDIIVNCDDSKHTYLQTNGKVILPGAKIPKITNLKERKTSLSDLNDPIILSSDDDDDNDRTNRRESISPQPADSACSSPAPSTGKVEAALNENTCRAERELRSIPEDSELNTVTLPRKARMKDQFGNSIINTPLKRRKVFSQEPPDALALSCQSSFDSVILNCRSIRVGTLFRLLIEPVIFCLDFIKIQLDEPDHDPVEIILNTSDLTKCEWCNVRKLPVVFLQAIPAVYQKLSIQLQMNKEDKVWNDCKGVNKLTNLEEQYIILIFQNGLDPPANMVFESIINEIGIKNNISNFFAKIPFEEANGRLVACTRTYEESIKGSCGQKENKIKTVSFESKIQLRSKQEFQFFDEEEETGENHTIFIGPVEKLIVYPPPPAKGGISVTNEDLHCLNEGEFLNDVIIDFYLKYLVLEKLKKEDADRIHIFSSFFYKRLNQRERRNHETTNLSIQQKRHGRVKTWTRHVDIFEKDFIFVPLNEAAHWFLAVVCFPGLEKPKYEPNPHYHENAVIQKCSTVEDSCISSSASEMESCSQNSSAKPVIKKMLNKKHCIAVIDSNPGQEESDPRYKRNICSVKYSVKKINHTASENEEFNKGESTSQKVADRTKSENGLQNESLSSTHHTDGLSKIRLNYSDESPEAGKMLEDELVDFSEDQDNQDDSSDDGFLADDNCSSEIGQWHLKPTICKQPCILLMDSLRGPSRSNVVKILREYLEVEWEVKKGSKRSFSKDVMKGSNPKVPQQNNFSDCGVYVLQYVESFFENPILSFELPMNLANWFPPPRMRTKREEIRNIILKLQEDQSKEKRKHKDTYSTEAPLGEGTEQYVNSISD
The experiment in a line: SAR Analysis of small molecule inhibitors of Sentrin-specific protease 6 (SENP6) using a Luminescent assay. [Related pubchem assays (depositor defined):AID2582, AID2599]. The test is classed as functional.

Test [7] has as its target T1, Heat shock factor protein 1. The experiment in a line: HSF1 potentiators in luciferase reporter cells, confirmation, cell-based, NIH3T3, luminescence, dose retest (AID 435004).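 Note: stress induced by proteasome inhibitor MG132 added 30 min after compound; luciferase reporter driven by HSF1 response element in NIH3T3 cells; actives raise luminescence as potentiators of the MG132 stress response.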 The test is classed as functional.
Test [8] deals with T3, Rac GTPase-activating protein 1 (Homo sapiens, UniProt Q9H0H5).
T3 sequence (Q9H0H5 whole entry): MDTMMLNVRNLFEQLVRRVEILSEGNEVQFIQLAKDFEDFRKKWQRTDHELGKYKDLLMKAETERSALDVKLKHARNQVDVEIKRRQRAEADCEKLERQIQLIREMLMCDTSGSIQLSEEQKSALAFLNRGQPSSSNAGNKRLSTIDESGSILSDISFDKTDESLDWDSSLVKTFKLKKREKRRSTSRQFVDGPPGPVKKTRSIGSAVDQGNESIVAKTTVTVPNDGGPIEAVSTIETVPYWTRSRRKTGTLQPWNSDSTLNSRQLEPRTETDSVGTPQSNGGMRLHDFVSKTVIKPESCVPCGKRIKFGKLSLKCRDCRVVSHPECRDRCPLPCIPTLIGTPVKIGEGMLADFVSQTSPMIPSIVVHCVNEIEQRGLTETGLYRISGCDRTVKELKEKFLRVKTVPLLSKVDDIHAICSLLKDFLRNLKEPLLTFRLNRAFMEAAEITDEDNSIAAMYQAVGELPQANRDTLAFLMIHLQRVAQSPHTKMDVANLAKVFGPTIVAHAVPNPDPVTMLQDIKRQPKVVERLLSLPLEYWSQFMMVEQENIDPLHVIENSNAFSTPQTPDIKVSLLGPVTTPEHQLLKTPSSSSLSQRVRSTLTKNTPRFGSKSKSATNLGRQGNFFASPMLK
The experiment in a line: MgcRacGAP GTPase-activating activity inhibitors, confirmation, biochemical, ADP Hunter fluorescence, primary and confirmatory (AID 624330). Format: functional.

Test [9] concerns the target ATP-dependent molecular chaperone HSP82 (Candida albicans (strain WO-1) (Yeast), UniProt C4YTQ8). Put plainly: loss of DOC-induced GRE-beta-galactosidase reporter signal, dose response, Hsp90 inhibitor project, S. cerevisiae, luminescence (AID 2400).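 Note: beta-galactosidase luminescence from glucocorticoid response element reporter as proxy for Hsp90 function; inhibitor potency where signal loss means Hsp90 inhibition.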 Format: functional, cell-based.
A short description of test [10]: cells. The test is classed as functional, cell-based.
Test [11] deals with HEK293. The experiment in a line: cytotoxicity in HEK293T NF-kB-Luc cells, SAR follow-up, cytotoxicity control for NF-kB activator project, cell-based, resazurin fluorescence (AID 493251). Format: functional. The conditions noted are these: Homo sapiens.

Calls of active or inactive are those of the source. Cut-off read from the data, not from the text of the source, for most assays here: actives have a measured EC50 and inactives only a lower limit.

Sequence of ATP-dependent molecular chaperone HSP82 (C4YTQ8 whole entry): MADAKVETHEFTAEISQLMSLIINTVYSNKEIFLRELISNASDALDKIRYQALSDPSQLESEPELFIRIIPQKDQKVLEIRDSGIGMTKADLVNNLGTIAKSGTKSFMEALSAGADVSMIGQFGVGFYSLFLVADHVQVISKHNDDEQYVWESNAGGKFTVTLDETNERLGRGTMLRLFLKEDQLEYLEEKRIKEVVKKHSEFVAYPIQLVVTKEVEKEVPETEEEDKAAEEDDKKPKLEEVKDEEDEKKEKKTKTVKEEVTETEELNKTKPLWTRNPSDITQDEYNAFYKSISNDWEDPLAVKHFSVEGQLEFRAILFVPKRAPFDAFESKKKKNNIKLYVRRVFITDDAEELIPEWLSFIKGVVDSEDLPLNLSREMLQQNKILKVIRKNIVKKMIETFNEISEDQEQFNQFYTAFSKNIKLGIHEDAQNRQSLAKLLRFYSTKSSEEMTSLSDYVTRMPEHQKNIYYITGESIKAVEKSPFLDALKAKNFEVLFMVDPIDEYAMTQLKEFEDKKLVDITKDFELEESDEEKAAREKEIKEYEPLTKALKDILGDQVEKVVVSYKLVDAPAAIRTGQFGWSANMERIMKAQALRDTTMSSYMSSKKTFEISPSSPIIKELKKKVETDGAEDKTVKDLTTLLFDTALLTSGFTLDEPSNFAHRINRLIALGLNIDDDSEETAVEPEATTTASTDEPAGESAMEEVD

Broadly, the EC50 is the concentration needed to bring the measured effect to its halfway point. Consider `O=C(Cc1ccc([N+](=O)[O-])cc1)N/N=C/c1ccc([N+](=O)[O-])o1`, for which, in [1], the EC50 was 38.3 µM (active). A word on the AC50: it is the concentration giving half of the maximal activity seen. For `NS(=O)(=O)c1ccc(NC(=O)COC(=O)c2ccc([N+](=O)[O-])s2)cc1`, in [2], the AC50 is > 22 µM (inactive). For `SC1=Nc2ccccc2C1`, the EC50 in test [3] was 0.79 µM (active); in test [4], 0.487 µM (active). Take `Cn1nc(-c2ccc(Cl)cc2)nc2c(=O)n(C)c(=O)nc1-2`: in [5], the EC50 was > 120 µM (not active). In general, IC50 refers to the midpoint of a concentration-inhibition curve. Regarding `CCCCNc1cc(NC(C)=O)cc2cc(OC)c(OC)cc12`, the IC50 in [6] is 82 µM (active); in [8], 39.5 µM (active). For the same molecule, the EC50 in test [7] is > 260 µM (inactive). As to `COc1ccc(C(NC(=O)C(C)C)c2ccc3cccnc3c2O)cc1` (stereo unspecified), the EC50 was 52.4 µM (active) in test [9] and 5.77 µM (active) in test [10]. Also, the IC50 in test [11] is 41.3 µM (inactive).
